From publication PMC3832036, “The crystal structures of the tri-functional Chloroflexus aurantiacus and bi-functional Rhodobacter sphaeroides malyl-CoA lyases and comparison with CitE-like superfamily enzymes and malate synthases” (BMC Structural Biology, 2013)

What was measured:
MCLR [1] = target: T1, MCLR (Cereibacter sphaeroides, UniProt Q3J5L6); conditions: Mg2+; pH 8.5; two closed active sites; not intentionally added, modelled from density
T1 construct: gene mcl1

MCLR [2] = target: T1, MCLR; conditions: 0.5 mM acetyl-CoA, 100 mM pyruvate, 5 mM MgCl2, MOPS/KOH pH 7.5
MCLR [3] = target: T1, MCLR; conditions: glyoxylate and Mg2+ present; pH 8.5; one of the closed active sites
[4] = target: the molecule itself; test: SEC; Superdex 200 10/30 GL, 20 mM Tris/HCl pH 7.5, 2 mM MgCl2, 100 mM NaCl, 4°C; molecular weight against protein standards

O=CC(=O)O [GLX, glyoxylate]
X-ray crystal structure, glyoxylate carried over from E. coli, 2.1 A (MCLR [1]): active sites contained electron density that allowed modeling of glyoxylate molecules together with magnesium ions

CC(=O)C(=O)O [PYR, pyruvate]
reversed phase HPLC of citramalyl-CoA formation (MCLR [2]): formation of citramalyl-CoA was confirmed by reversed phase HPLC analysis

CCC(=O)SCCNC(=O)CCNC(=O)[C@H](O)C(C)(C)COP(=O)(O)OP(=O)(O)OC[C@H]1O[C@@H](n2cnc3c(N)ncnc32)[C@H](O)[C@@H]1OP(=O)(O)O [PCO, propionyl-CoA]
X-ray crystal structure, crystal soaking, 2.1 A (MCLR [3]): one of these closed active sites was also occupied by propionyl-CoA

B1: malyl-CoA lyase of Rhodobacter sphaeroides (enzyme, Rhodobacter sphaeroides 2.4.1)
chain: MSFRLQPAPPARPNRCQLFGPGSRPALFEKMAASAADVINLDLEDSVAPDDKAQARANIIEAINGLDWGRKYLSVRINGLDTPFWYRDVVDLLEQAGDRLDQIMIPKVGCAADVYAVDALVTAIERAKGRTKPLSFEVIIESAAGIAHVEEIAASSPRLQAMSLGAADFAASMGMQTTGIGGTQENYYMLHDGQKHWSDPWHWAQAAIVAACRTHGILPVDGPFGDFSDDEGFRAQARRSATLGMVGKWAIHPKQVALANEVFTPSETAVTEAREILAAMDAAKARGEGATVYKGRLVDIASIKQAEVIVRQAEMISA
notes: Malyl-CoA lyase of Rhodobacter sphaeroides 2.4.1, GenBank ACJ71673; model 4L9Z holds Ser2 or Phe3 through Met315 with only the C-terminal three residues missing (lid domain residues 264-318); 36.8 kDa per monomer; Hexamer (dimer of trimers); The His10 tag had no electron density in the crystals; also called MCLR; MCL; source: E. coli BL21(DE3), purified (Ni-Sepharose, gel filtration); not shown: …
stoichiometry N [4]: 6

B2: malyl-CoA lyase of Chloroflexus aurantiacus (enzyme, Chloroflexus aurantiacus OK-70-fl, UniProt S5N020 1-348, looked up)
chain: MRKLAHNFYKPLAIGAPEPIRELPVRPERVVHFFPPHVEKIRARIPEVAKQVDVLCGNLEDAIPMDAKEAARNGFIEVVKATDFGDTALWVRVNALNSPWVLDDIAEIVAAVGNKLDVIMIPKVEGPWDIHFVDQYLALLEARHQIKKPILIHALLETAQGMVNLEEIAGASPRMHGFSLGPADLAASRGMKTTRVGGGHPFYGVLADPQEGQAERPFYQQDLWHYTIARMVDVAVAHGLRAFYGPFGDIKDEAACEAQFRNAFLLGCTGAWSLAPNQIPIAKRVFSPDVNEVLFAKRILEAMPDGSGVAMIDGKMQDDATWKQAKVIVDLARMIAKKDPDLAQAYGL
notes: Malyl-CoA lyase of Chloroflexus aurantiacus OK-70-fl, GenBank AGR55786; gene amplified from chromosomal DNA with primers upstream (NdeI at the start codon) and downstream of the gene, cloned into pT7-7; 348 residues (models run from Arg2 to Leu348, the native C-terminus); calculated 38.4 kDa per monomer; Hexamer (dimer of trimers); No tag is named for this construct; also called MCLC; MCL; …
stoichiometry N [4]: 6
